Test results reported in article PMC8333425, “Discovery of a dual Ras and ARF6 inhibitor from a GPCR endocytosis screen” (Nature Communications, 2021).
Where “and” joins values, the source holds several entries; their conditions need not be identical. Equal values may be shown once.

Test system: PI3K/Akt
Test: PI3K/Akt BRET sensor (Akt (PH)-RlucII / rGFP-CAAX), EGFR-mediated
Type: cell-based, human
Method: HEK293SL cells were seeded at a density of 7.5 × 10^5 cells per 100-mm dish and 24 h later, transiently transfected as such. For receptor internalization experiments, cells were transfected with 0.12 μg AT1R-RlucII, B2R-RlucII, or β2AR-RlucII and 0.48 μg of either rGFP-CAAX (to assess removal from the PM) or rGFP-FYVE (to assess accumulation in the endosomes). For β-arrestin recruitment assays, cells were transfected with 0.48 μg of receptor-YFP along with 0.12 μg of β-arrestin-RlucII. For β-arrestin/AP-2 binding experiments, cells were transfected with 1 μg Flag-AT1R, 1 μg β2-Adaptin-YFP, and 0.12 μg β-arrestin2-RlucII. For G protein activation, cells were transfected with 3 μg of sp-Flag-AT1R along with either 4.5 μg of the Gαq-polycistronic BRET sensor or 0.24 μg of the Gαi3-RlucII and 0.6 μg of GFP10-Gγ2 and Gβ1 sensors or 0.12 μg PKN-RBD-RlucII and 0.48 μg of rGFP-CAAX. For PKC activation, cells were transfected with 3 μg of sp-Flag-AT1R and 0.18 μg of the PKC sensor. For GTPase activation experiments, cells were transfected with 1 μg Flag-AT1R, 0.48 μg of rGFP-CAAX, and either 0.12 μg of GGA3-PBD-RlucII, PAK-CRIB-RlucII or Raf-RBD-RlucII. For biosensor validation experiments, cells were additionally transfected with 500 ng Flag-K-Ras-WT, Flag-K-Ras-G12V, Flag-K-Ras-SOS-CAAX, HA-ARF6-WT, HA-ARF6-T27N, Myc-Rac1-WT, Myc-Rac1-Q61L or Myc-Rac1-T17N. For PI3K/Akt activation experiments, cells were transfected with 0.48 μg of rGFP-CAAX and 0.12 μg of Akt (PH)-RlucII. After 18 h of transfection, the media was replaced and cells were divided for subsequent experiments. Cells were detached and seeded onto poly-L-ornithine-coated 96-well flat white bottom plates (BrandTech Scientific) at a density of 2.5 × 10^4 cells per well in media. The next day, cells were washed once with Tyrode’s buffer (140 mM NaCl, 2.7 mM KCl, 1 mM CaCl2, 12 mM NaHCO3, 5.6 mM D-glucose, 0.5 mM MgCl2, 0.37 mM NaH2PO4, 25 mM HEPES, pH 7.4) and left in Tyrode’s buffer. For kinetics of β-arrestin recruitment or β-arrestin binding to receptor and AP-2 experiments, cells were serum starved for 30 min, pretreated with 21 (50 µM) or Barbadin (100 µM) for 30 min, stimulated with 100 nM AngII or 1 µM BK and BRET signals were monitored at indicated times using a Victor X Light plate reader (PerkinElmer). Coelenterazine H (final concentration of 5 µM) was added 3–5 min prior to BRET measurements. Filter set was 460/80 nm and 535/30 nm for detecting the RlucII Renilla luciferase (donor) and YFP (acceptor) light emissions, respectively. The BRET ratio was determined by calculating the ratio of the light emitted by YFP over the light emitted by the RlucII. For G protein activation, cells were serum starved, pretreated with compounds for 30 min, stimulated with 100 nM AngII for 2 min (Gαq, Gαi3, and Rho sensors) or 5 min (PKC sensor). For the kinetics of GTPase and PI3K/Akt activation, cells were serum starved, pretreated with 21 (50 µM) or Wortmannin (200 nM) for 30 min, stimulated with ligand (100 nM AngII or 100 ng/ml EGF) and BRET signals were monitored at indicated times. For concentration-response curves, cells were serum-starved, pretreated with various concentrations of compounds for 30 min and stimulated with ligand (100 nM AngII, 1 µM BK, 10 µM Isoproterenol (Iso) or 100 ng/ml EGF) in Tyrode’s buffer for 30 min for receptor internalization, 10 min for ARF6, 2 min for Rac and Rho activation and 5 min for Ras activation and PI3K/Akt activation. BRET signals were monitored using a Synergy2 (BioTek) microplate reader and coelenterazine 400a (final concentrations of 5 µM) added 3–5 min prior to BRET measurements. Filter set was 410/80 nm and 515/30 nm for detecting the RlucII Renilla luciferase (donor) and rGFP/GFP10 (acceptor) light emissions, respectively. The BRET ratio was determined by calculating the ratio of the light emitted by rGFP/GFP10 over the light emitted by the RlucII.

SMILES: CC(C)C(=O)N1CCN(c2ccc(NC(=O)c3cc4ccccc4o3)cc2Cl)CC1 [Compound 21]
- IC50 (Homo sapiens, read-out: potency for inhibition of EGFR-mediated Akt (BRET assay)): 4 to 5 µM
- EGF-promoted BRET (Log [Comp 21] (M) -4.30103): 0.039 and 0.07107 and 0.056
- EGF-promoted BRET (Log [Comp 21] (M) -5.32288): 0.1533 and 0.2873 and 0.2883
- EGF-promoted BRET (Log [Comp 21] (M) -6): 0.6727 and 0.6567 and 0.6163
- EGF-promoted BRET (Log [Comp 21] (M) -6.32288): 0.7007 and 0.6398 and 0.6137
- EGF-promoted BRET (Log [Comp 21] (M) -7): 0.7123 and 0.6372 and 0.6493
